± gives the expanded uncertainty stated by the source.
Key:
[1] = 101.33 kPa, Liquid, Hot wire method
[2] = wn = mass fraction of the nth substance listed; details: 303.15 K, 100.7 kPa, Liquid, Hot wire method

## O [water]
[1]; 303.15 K
  thermal conductivity: 0.607 ± 0.015 W/m/K
[1]; 313.15 K
  thermal conductivity: 0.621 ± 0.016 W/m/K
[1]; 323.15 K
  thermal conductivity: 0.631 ± 0.016 W/m/K

## C[C@H](CCC(=O)[O-])[C@H]1CC[C@H]2[C@@H]3CC[C@@H]4C[C@H](O)CC[C@]4(C)[C@H]3C[C@H](O)[C@]12C.[Na+] [sodium deoxycholate] + OCCO
[2]; w1 = 0.00761
  thermal conductivity: 0.259 ± 0.003 W/m/K

## C[C@H](CCC(=O)[O-])[C@H]1CC[C@H]2[C@@H]3CC[C@@H]4C[C@H](O)CC[C@]4(C)[C@H]3C[C@H](O)[C@]12C.[Na+] [sodium deoxycholate] + O
[2]; w1 = 0.0085
  thermal conductivity: 0.617 ± 0.006 W/m/K

## OCCO [1,2-ethanediol]
[1]; 303.15 K
  thermal conductivity: 0.254 ± 0.003 W/m/K
[1]; 313.15 K
  thermal conductivity: 0.256 ± 0.004 W/m/K
[1]; 323.15 K
  thermal conductivity: 0.26 ± 0.003 W/m/K
